In publication PMC4674695, “Antagonism of Nav channels and α1-adrenergic receptors contributes to vascular smooth muscle effects of ranolazine” (Scientific Reports, 2015):

Tested on: T1, tetrodotoxin-sensitive voltage-gated Nav channels
T1 construct: gene Scn1a
Test: whole-cell patch clamp, voltage ramp
Type: cell-based, Rattus norvegicus
Conditions: INa at maximal amplitude; veratridine 100 μM present, 2 mM NiCl2, 22–24 °C, pH 7.4; block voltage-dependent

Q: With `COc1ccccc1OCC(O)CN1CCN(CC(=O)Nc2c(C)cccc2C)CC1` (stereo not shown) [ranolazine] as the compound, how does the “% inhibition at 20 μM” value read?
A: 40%
